Assay results as given in the NIST ThermoML archive (doi:10.1021/je800664z).
Numbers after ± are expanded uncertainties.

Experiments:
[1] = for surface tension liquid-gas: Capillary rise; for mass density / viscosity: 101 kPa, Liquid
[2] = refractive index (Na D-line) (dimensionless); settings: 101.33 kPa, Liquid, Standard Abbe refractometry
[3] = xn = mol fraction of the nth substance listed; settings: x2 = 0; for surface tension liquid-gas: Capillary rise; for mass density / viscosity: 101 kPa, Liquid
[4] = refractive index (Na D-line) (dimensionless); xn = mol fraction of the nth substance listed; settings: 101 kPa, Liquid, Standard Abbe refractometry, x2 = 0

C1COCO1 [1,3-dioxolane]
Settings | mass density, [1] [kg/m3] | refractive index, [2] | surface tension liquid-gas, [1] [mN/m] | viscosity, [1] [mPa·s]
288.15 K | 1071.24 ± 0.29 | 1.40252 ± 0.00033 | 34.37 ± 0.15 | 0.667 ± 0.013
298.15 K | 1059.29 ± 0.27 | 1.39795 ± 0.00033 | 32.55 ± 0.15 | 0.596 ± 0.012
308.15 K | 1046.85 ± 0.25 | 1.39322 ± 0.00033 | 30.67 ± 0.14 | 0.535 ± 0.011

CC(C)CC(C)(C)C [2,2,4-trimethylpentane]
Settings | mass density, [1] [kg/m3] | refractive index, [2] | surface tension liquid-gas, [1] [mN/m] | viscosity, [1] [mPa·s]
288.15 K | 696.1 ± 0.61 | 1.39408 ± 0.00032 | 19.18 ± 0.12 | 0.537 ± 0.011
298.15 K | 687.95 ± 0.62 | 1.38916 ± 0.00032 | 18.33 ± 0.12 | 0.481 ± 0.011
308.15 K | 679.62 ± 0.63 | 1.38497 ± 0.00032 | 17.35 ± 0.12 | 0.434 ± 0.01

CC(C)CC(C)(C)C [2,2,4-trimethylpentane] + C1COCO1
Settings | mass density, [3] [kg/m3] | refractive index, [4] | surface tension liquid-gas, [3] [mN/m] | viscosity, [3] [mPa·s]
288.15 K | 696.1 ± 0.61 | 1.39408 ± 0.00032 | 19.18 ± 0.12 | 0.537 ± 0.011
298.15 K | 687.95 ± 0.62 | 1.38916 ± 0.00032 | 18.33 ± 0.12 | 0.481 ± 0.011
308.15 K | 679.62 ± 0.63 | 1.38497 ± 0.00032 | 17.35 ± 0.12 | 0.434 ± 0.01

CC(C)O [propan-2-ol]
Settings | mass density, [1] [kg/m3] | refractive index, [2] | surface tension liquid-gas, [1] [mN/m] | viscosity, [1] [mPa·s]
288.15 K | 789.53 ± 0.48 | 1.37933 ± 0.00033 | 21.75 ± 0.13 | 2.849 ± 0.046
298.15 K | 781.16 ± 0.5 | 1.37515 ± 0.00033 | 20.9 ± 0.13 | 2.043 ± 0.033
308.15 K | 772.52 ± 0.51 | 1.37061 ± 0.00033 | 20.17 ± 0.13 | 1.541 ± 0.025

CC(C)O [propan-2-ol] + C1COCO1
Settings | mass density, [3] [kg/m3] | refractive index, [4] | surface tension liquid-gas, [3] [mN/m] | viscosity, [3] [mPa·s]
288.15 K | 789.53 ± 0.48 | 1.37933 ± 0.00033 | 21.75 ± 0.13 | 2.849 ± 0.046
298.15 K | 781.16 ± 0.5 | 1.37515 ± 0.00033 | 20.9 ± 0.13 | 2.043 ± 0.033
308.15 K | 772.52 ± 0.51 | 1.37061 ± 0.00033 | 20.17 ± 0.13 | 1.541 ± 0.025
